The results in this text go back to paper PMC11124387, “A Reliable Multifaceted Solution against Foodborne Viral Infections: The Case of RiLK1 Decapeptide” (Molecules, 2024).

Values joined by “and” are separate entries in the source; they are usually repeats but may differ in a detail not shown here. Equal values may be shown once. Read-outs that look alike come from different tables or passages of the source. Where a SMILES comes first, the peptide text is derived from it.

What all share (format): cell-based
In assay [1] the test system is Hepatitis A virus (HAV) strain HM-175. Description: Virucidal effect of peptides on HAV (residual infectivity by TCID50 titration on Frp3 cells). The conditions noted are these: for Viral Titre after Treatment: titration on Frp3 cells; for Viral Titre after Treatment / LRV (log reduction value): mean ± SD, triplicate. The text has this: (§1) Murine norovirus strain 1 (MNV-1) was used as a surrogate for human norovirus (NoV). The virus was replicated in RAW 264.7 cells (murine macrophage cell line) cultured in Dulbecco’s modified Eagle’s medium (DMEM) supplemented with 1% glutamine, 1% non-essential amino acids, and 2% fetal bovine serum (FBS). Hepatitis A virus (HAV) strain HM-175 was replicated in Frp3 cells (non-human primate cell line derived from fetal kidney) cultured in minimum essential medium (MEM) with Earle’s salts supplemented with 1% glutamine, 2% non-essential amino acids, and 2% FBS. Both viruses were incubated in 5% CO2 at 37 °C. All cell culture media were provided by EuroClone (Milan, Italy). The viral suspensions were prepared by freeze and thaw lysis (1 cycle for MNV-1 and 3 cycles for HAV) of infected monolayers, clarified using low-speed centrifugation (800× g) to remove residual cell debris, then divided in aliquots, and stored at −80 °C until use.
(§2) Solutions 40 µM and 80 µM of each peptide of the panel (RiLK1, RiLK3, RiLK30, 1018-K6, MTP1, and AVP2) were chosen for the virucidal tests. HAV and MNV-1 were assayed at a concentration of 4.7 ± 0.2 log TCID50/mL and 4.5 ± 0.2 log TCID50/mL, respectively. The suspensions containing the peptides and viruses were incubated for 1 h at room temperature (RT,20 ± 2 °C) and 4 °C. These temperatures were chosen to simulate the use of sanitizing solutions in food production/processing environments. Residual viral infectivity was evaluated by titration (TCID50/mL) on Frp3 cells for HAV and on RAW 264.7 cells for MNV-1. Untreated HAV and MNV-1 suspensions and 40 µM and 80 µM AMP solutions, incubated at the same conditions, were used as controls. Each treatment condition was assayed in triplicate. For titration, 100 µL of serial tenfold dilutions of each sample were assayed in 24-well tissue culture plates containing 24–48 h cell monolayers and incubated for 1 h in 5% CO2 at 37 °C. After that, the wells were washed twice with 200 µL of PBS, and 500 µL of DMEM/MEM, supplemented with 2% of FBS, were was added to each well; MNV-1 and HAV incubations were carried for up to 6 days and 14 days, respectively, in 5% CO2 at 37 °C with daily visual inspection to determine the cytopathic effect. The virucidal efficacy of AMPs was estimated by comparing the titers of treated and untreated viral suspensions.
(§3) For each treatment, the average and standard deviation of the triplicate analyses were calculated. The virucidal effects of AMPs was assessed by calculating the log reduction value (LRV), i.e., the difference between the infectious titer (log-transformed) of untreated versus treated samples. The statistical significance of differences between treated and untreated samples was determined through one-way analysis of variance (ANOVA) with Bonferroni post hoc comparisons, with a significance level of p < 0.05 (GraphPad Prism v9.5.0, software San Diego, CA, USA).

Assay [2] relates to Murine norovirus strain 1 (MNV-1). The conditions noted are these: for Viral Titre after Treatment: titration on RAW 264.7 cells; for Viral Titre after Treatment / LRV (log reduction value): mean ± SD, triplicate.
Excerpt: as §1, §2, §3

For assay [3] the test system is unchanged. As to the kind of experiment: Virus pre-treatment assay, MNV-1. The conditions noted are these: virus pre-treatment: peptide 80 µM with virus 1 h at RT, then on RAW 264.7 cells 1 h 37 °C, mean ± SD. How it is done: (§4) Four sets of experiments were performed to suppose the effect of RiLK1 and RiLK3 on HAV and MNV-1 [29]. To this aim, 80 µM solutions of the two peptides and HAV and MNV-1 suspensions at a final concentration of 4.7 ± 0.2 log TCID50/mL and 4.5 ± 0.2 log TCID50/mL, respectively, were used in the following experiments: • i) A virus pre-treatment assay to assess the direct interaction between the virus and peptide: the incubation of the peptide with viral suspension for 1 h at room temperature was carried out, followed by its incubation on cells for 1 h at 37 °C. Then, cell monolayers were washed twice with PBS and incubated with 500 µL DMEM/MEM supplemented with 2% of FBS to determine the TCID50/mL. • ii) A cell pre-treatment assay to assess the interaction between the peptide and cells before the viral infection: cell monolayers were preincubated with 100 µL of peptide solution for 1 h at 37 °C, followed by the removal of the peptide, addition to cells of viral suspensions for 1 h at 37 °C, washing step, and culture with 2% FBS DMEM/MEM. • iii) An attachment assay to assess the possible action of the peptide at the stage of virus attachment to cells: cell monolayers were incubated with 100 µL of a suspension containing both the peptide and virus and were incubated for 1 h at 4 °C. […]
as §3

The subject of assay [4] is Hepatitis A virus (HAV) strain HM-175. As to the kind of experiment: Entry assay, HAV. The conditions noted are these: entry: cells with virus 1 h at 4 °C, then peptide 80 µM 1 h 37 °C, mean ± SD. How it is done: (§5) Four sets of experiments were performed to suppose the effect of RiLK1 and RiLK3 on HAV and MNV-1 [29]. To this aim, 80 µM solutions of the two peptides and HAV and MNV-1 suspensions at a final concentration of 4.7 ± 0.2 log TCID50/mL and 4.5 ± 0.2 log TCID50/mL, respectively, were used in the following experiments: • i) A virus pre-treatment assay to assess the direct interaction between the virus and peptide: the incubation of the peptide with viral suspension for 1 h at room temperature was carried out, followed by its incubation on cells for 1 h at 37 °C. Then, cell monolayers were washed twice with PBS and incubated with 500 µL DMEM/MEM supplemented with 2% of FBS to determine the TCID50/mL. • ii) A cell pre-treatment assay to assess the interaction between the peptide and cells before the viral infection: cell monolayers were preincubated with 100 µL of peptide solution for 1 h at 37 °C, followed by the removal of the peptide, addition to cells of viral suspensions for 1 h at 37 °C, washing step, and culture with 2% FBS DMEM/MEM. • iii) An attachment assay to assess the possible action of the peptide at the stage of virus attachment to cells: cell monolayers were incubated with 100 µL of a suspension containing both the peptide and virus and were incubated for 1 h at 4 °C. Subsequently, the cell monolayers were washed with PBS and incubated for 1 h at 37 °C with a culture medium followed by a washing step and the addition of culture with 2% FBS DMEM/MEM. • iv) An entry assay to assess the possible action of the peptide at the stage of virus internalization into cells: cell monolayers were incubated with 100 µL of the viral suspension for 1 h at 4 °C, followed by the addition of the peptide and incubation for 1 h at 37 °C. Cells were then washed with PBS, and 2% FBS DMEM/MEM was finally added.
(§6) Untreated viral suspensions and peptide solutions, incubated at the same conditions, were used as controls.
as §3

For assay [5] the test system is unchanged. As to the kind of experiment: Cell pre-treatment assay, HAV. The conditions noted are these: cell pre-treatment: cells with peptide 80 µM 1 h 37 °C, peptide removed, then virus 1 h 37 °C, mean ± SD. How it is done: as §5, §6, §3
Assay [6] shares this test system. As to the kind of experiment: Attachment assay, HAV. The conditions noted are these: attachment: cells with peptide 80 µM and virus together 1 h at 4 °C, mean ± SD. How it is done: as §5, §6, §3
The test system is the same in assay [7]. Description: Virus pre-treatment assay, HAV. The conditions noted are these: virus pre-treatment: peptide 80 µM with virus 1 h at RT, then on Frp3 cells 1 h 37 °C, mean ± SD. How it is done:
as §4, §3

In assay [8] the test system is Murine norovirus strain 1 (MNV-1). As to the kind of experiment: Attachment assay, MNV-1. The conditions noted are these: attachment: cells with peptide 80 µM and virus together 1 h at 4 °C, mean ± SD. How it is done: as §5, §6, §3
Setting [9] is: HAV 4.7 ± 0.2 log TCID50/mL + peptide 80 µM, 1 h at 4 °C.
The mark [10] stands for this setting: HAV + peptide 40 µM, 1 h at 4 °C.
Where [11] appears, read: HAV + peptide 40 µM, 1 h at 4 °C, untreated minus treated titre.
Where [12] appears, read: HAV + peptide 40 µM, 1 h at RT (20 ± 2 °C).
[13] abbreviates: HAV + peptide 80 µM, 1 h at 4 °C, untreated minus treated titre.
The mark [14] stands for this setting: HAV + peptide 80 µM, 1 h at RT (20 ± 2 °C).
Where [15] appears, read: MNV-1 4.5 ± 0.2 log TCID50/mL + peptide 80 µM, 1 h at 4 °C.
Where [16] appears, read: MNV-1 + peptide 40 µM, 1 h at 4 °C.
The mark [17] stands for this setting: MNV-1 + peptide 40 µM, 1 h at RT (20 ± 2 °C).
Setting [18] is: MNV-1 + peptide 80 µM, 1 h at 4 °C.
Setting [19] is: MNV-1 + peptide 80 µM, 1 h at RT (20 ± 2 °C).
Setting [20] is: maximum reduction, corresponding to the highest LRV.

For “KLRWVKIWKK-NH2 [RiLK30, newly designed RiLK1 derivative, Arg residues exchanged with Lys and Lys3 with Arg]”, the “virucidal activity toward HAV (in words)” value in assay [1] (40 and 80 µM, 4 °C and RT) is listed as “no virucidal activity”. Besides, the “Viral Titre after Treatment” value was found to be 4.3 ± 0.2 logTCID50/mL in assay [1] (setting [9]); 4.3 ± 0.2 logTCID50/mL in assay [1] (setting [10]); 4.1 ± 0.2 logTCID50/mL in assay [1] (setting [12]); 4.1 ± 0.2 logTCID50/mL in assay [1] (setting [14]); 3.9 ± 0.2 logTCID50/mL in assay [2] (setting [15]); 4.3 ± 0.3 logTCID50/mL in assay [2] (setting [16]). Further, the “Viral Titre after Treatment” value in assay [2] (setting [17]) was found to be 4.5 ± 0.2 logTCID50/mL; in assay [2] (setting [19]) it was 4.5 ± 0.1 logTCID50/mL. Moreover, the “LRV (log reduction value)” value is listed as 0.4 ± 0.4 logTCID50/mL in assay [1] (setting [11]); 0.6 ± 0.4 logTCID50/mL in assay [1] (setting [12]); 0.4 ± 0.4 logTCID50/mL in assay [1] (setting [13]); 0.6 ± 0.4 logTCID50/mL in assay [1] (setting [14]); 0.2 ± 0.5 logTCID50/mL in assay [2] (setting [16]); 0 ± 0.4 logTCID50/mL in assay [2] (setting [17]). Also, the results for the “LRV (log reduction value)” value in assay [2] (setting [18]) and in assay [2] (setting [19]) were 0.6 ± 0.4 logTCID50/mL and 0 ± 0.3 logTCID50/mL, respectively. Besides, in assay [2] (40 and 80 µM, 4 °C and RT), the “virucidal activity toward MNV-1 (in words)” value is on record as “no virucidal activity”.

Take `CC[C@H](C)[C@H](NC(=O)[C@H](CCCNC(=N)N)NC(=O)[C@@H](NC(=O)[C@H](Cc1c[nH]c2ccccc12)NC(=O)[C@H](CCCCN)NC(=O)[C@H](CC(C)C)NC(=O)[C@@H](N)CCCNC(=N)N)C(C)C)C(=O)N[C@@H](Cc1c[nH]c2ccccc12)C(=O)N[C@@H](CCCNC(=N)N)C(=O)N[C@@H](CCCNC(=N)N)C(N)=O` [RiLK1] (H-RLKWVRIWRR-NH2; N-terminus assumed): the “Viral Titre” value is recorded as 3.3 ± 0.2 logTCID50/mL in assay [3]; 4.6 ± 0.1 logTCID50/mL in assay [4]; 4.6 ± 0.1 logTCID50/mL in assay [5]; 3.3 ± 0.2 logTCID50/mL in assay [6]; 3.3 ± 0.2 logTCID50/mL in assay [7]; 3.1 ± 0.2 logTCID50/mL in assay [8]. In addition, the “Viral Titre after Treatment” value in assay [1] (setting [9]) was found to be 3.6 ± 0.1 logTCID50/mL; in assay [1] (setting [10]) it was 3.9 ± 0.2 logTCID50/mL; in assay [2] (setting [15]), 4.3 ± 0.2 logTCID50/mL; in assay [2] (setting [16]), 4.3 ± 0.2 logTCID50/mL; in assay [2] (setting [17]), 3.5 ± 0.2 logTCID50/mL; in assay [2] (setting [19]), 3.3 ± 0.2 logTCID50/mL. For the same molecule, the “LRV (log reduction value)” value in assay [1] (setting [11]) is on record as 0.8 ± 0.4 logTCID50/mL; in assay [1] (setting [13]), 1.1 ± 0.3 logTCID50/mL; in assay [2] (setting [16]) it was 0.2 ± 0.4 logTCID50/mL; in assay [2] (setting [17]) it was 1.0 ± 0.4 logTCID50/mL; in assay [2] (setting [18]), 0.2 ± 0.4 logTCID50/mL; in assay [2] (setting [19]) it was 1.2 ± 0.4 logTCID50/mL. Besides, the “decrease of HAV infectious titer” value in assay [1] (setting [20]) is listed as “up to 96.7%”. Moreover, the LRV in assay [4] is 0.1 ± 0.3 logTCID50/mL; in assay [5], 0.1 ± 0.3 logTCID50/mL; in assay [6], 1.4 logTCID50/mL and 1.4 ± 0.4 logTCID50/mL; in assay [8], 1.4 logTCID50/mL and 1.4 ± 0.4 logTCID50/mL. Moreover, in assay [2] (setting [20]), the “reduction of MNV-1 infectivity” value is listed as “up to 94.1%”.
